Assay results as given in patent US20140315876A1, “BETA-LACTAMASE INHIBITORS” (priority 2013, published 2014).
Structures can show the parent of a compound that is named as a salt.

test system: bacterial strains that express the class D cephalosporinase OXA-15; test: Synergy MIC / standard BLI potentiation MIC assay, strains expressing OXA-15; format: cell-based, E. coli; conditions: in the presence of a β-lactam; comparator Avibactam (comparator compound CCC)
Protocol: The experimental protocol was performed according to Clinical and Laboratory Standards Institute (CLSI) guidelines with modifications as described below (CLSI guidelines can be derived from the CLSI document M07-A9 published in January 2012: “Methods for Dilution Antimicrobial Susceptibility Tests for Bacteria That Grow Aerobically; Approved Standard-Ninth Edition”).
To prepare for MIC testing, frozen glycerol stocks of clinical isolates (Klebsiella pneumoniae, Eschericia coli, Enterobacter spp, Citrobacter spp, or Pseudomonas aeruginosa) were used to streak for isolated colonies on rich, non-selective, tryptic soy agar containing 5% sheep's blood (TSAB). Frozen glycerol stocks of laboratory engineered, isogenic E. coli strains, which contain cloned β-lactamase expressing plasmids were used to streak for isolated colonies on rich, selective LB agar supplemented with 25 μg/mL tetracycline to maintain the plasmid. All strains were incubated at 37° C. for 18-24 hrs.
On the day of testing, primary cultures were started by scraping off 5-10 colonies from the TSAB plates containing clinical strains or the tetracycline supplemented LB plates containing engineered strains. The clinical strain material was suspended in ˜5 mL of cation adjusted Mueller Hinton Broth (CAMHB) in 14 mL culture tubes. The engineered strain material was suspended in CAMHB (supplemented with 25 μg/mL tetracycline) in 14 mL culture tubes. All strains were incubated at 37° C. with aeration (200 rpm) for ˜2 hrs until the optical density at 600 nm (OD600) was ≧0.1.
The two compound components of the assay were each diluted in CAMHB and added to the 96-well broth microdilution assay plates. 50 μL of the β-lactam was added to each well of the assay plate in 2-fold dilutions with final concentrations ranging from 128 to 0.13 μg/mL. 25 μL of the BLI compound was added to all wells in the broth microdilution plates at a final concentration of 4 μg/mL. Inoculum cultures were prepared by standardizing the primary cultures to OD600=0.1 and then adding 20 μL of the adjusted primary culture per 1 mL CAMHB for clinical strains or CAMHB (supplemented with tetracycline at 100 μg/mL) for engineered strains, so that the final inoculum density was ˜10^5 colony forming units per milliliter. Diluted inoculum cultures were used to inoculate 25 μL per well in 96-well broth microdilution assay plates. The final volume of each well was 100 μL and contained a β-lactam at different concentrations, a BLI compound at 4 μg/mL concentration, the bacterial culture at an OD600 of approximately 0.001 and when necessary tetracycline at 25 μg/mL.
Plates were incubated for 18-20 hours at 37° C. with aeration (200 rpm). Following incubation, growth was confirmed visually placing plates over a viewing apparatus (stand with a mirror underneath) and then OD600 was measured using a SpectraMax 340PC384 plate reader (Molecular Devices, Sunnyvale, Calif.). Growth was defined as turbidity that could be detected with the naked eye or achieving minimum OD600 of 0.1. MIC values were defined as the lowest concentration producing no visible turbidity.
The synergy MIC (sMIC) assay determines the concentration of the BLI required to potentiate the activity of a fixed concentration of a β-lactam antibiotic against β-lactamase producing bacterial strains. The experimental protocol was performed according to Clinical and Laboratory Standards Institute (CLSI) guidelines with modifications as described below (CLSI guidelines can be derived from the CLSI document M07-A9 published in January 2012: “Methods for Dilution Antimicrobial Susceptibility Tests for Bacteria That Grow Aerobically; Approved Standard-Ninth Edition”). […]

| SMILES | activity against bacterial strains that express the class D cephalosporinase OXA-15, compared with Avibactam |
| --- | --- |
| NCC(N)c1nnc([C@@H]2CC[C@@H]3CN2C(=O)N3OS(=O)(=O)O)o1 (stereo partly drawn) [Compound 717, (2S,5R)-2-(5-(1,2-diaminoethyl)-1,3,4-oxadiazol-2-yl)-7-oxo-1,6-diazabicyclo[3.2.1]octan-6-yl hydrogen sulfate] | more active than Avibactam |
| NCC(O)c1nnc([C@@H]2CC[C@@H]3CN2C(=O)N3OS(=O)(=O)O)o1 (stereo partly drawn) [Compound 715, (2S,5R)-2-(5-(2-amino-1-hydroxyethyl)-1,3,4-oxadiazol-2-yl)-7-oxo-1,6-diazabicyclo[3.2.1]octan-6-yl hydrogen sulfate] | more active than Avibactam |
| O=C1N2C[C@@H](CC[C@H]2c2nnc(CC3CNC3)o2)N1OS(=O)(=O)O [Compound 725, (2S,5R)-2-(5-(azetidin-3-ylmethyl)-1,3,4-oxadiazol-2-yl)-7-oxo-1,6-diazabicyclo[3.2.1]octan-6-yl hydrogen sulfate] | more active than Avibactam |
| N=C(N)NCc1nnc([C@@H]2CC[C@@H]3CN2C(=O)N3OS(=O)(=O)O)o1 [Compound 704, (2S,5R)-2-(5-(guanidinomethyl)-1,3,4-oxadiazol-2-yl)-7-oxo-1,6-diazabicyclo[3.2.1]octan-6-yl hydrogen sulfate] | more active than Avibactam |
| Nc1nnc([C@@H]2CC[C@@H]3CN2C(=O)N3OS(=O)(=O)O)o1 [Compound 707, (2S,5R)-2-(5-amino-1,3,4-oxadiazol-2-yl)-7-oxo-1,6-diazabicyclo[3.2.1]octan-6-yl hydrogen sulfate] | more active than Avibactam |
| NCC(O)Cc1nnc([C@@H]2CC[C@@H]3CN2C(=O)N3OS(=O)(=O)O)o1 (stereo partly drawn) [Compound 733, (2S,5R)-2-(5-(3-amino-2-hydroxypropyl)-1,3,4-oxadiazol-2-yl)-7-oxo-1,6-diazabicyclo[3.2.1]octan-6-yl hydrogen sulfate] | more active than Avibactam |
| N=C(N)N[C@H]1C[C@H](c2nnc([C@@H]3CC[C@@H]4CN3C(=O)N4OS(=O)(=O)O)o2)C1 [Compound 748, (2S,5R)-2-(5-((1r,3S)-3-guanidinocyclobutyl)-1,3,4-oxadiazol-2-yl)-7-oxo-1,6-diazabicyclo[3.2.1]octan-6-yl hydrogen sulfate] | more active than Avibactam |
| N=C(N)NCCCc1nnc([C@@H]2CC[C@@H]3CN2C(=O)N3OS(=O)(=O)O)o1 [Compound 714, (2S,5R)-2-(5-(3-guanidinopropyl)-1,3,4-oxadiazol-2-yl)-7-oxo-1,6-diazabicyclo[3.2.1]octan-6-yl hydrogen sulfate] | more active than Avibactam |
| O=C1N2C[C@@H](CC[C@H]2c2nnc(CCCN3CCNCC3)o2)N1OS(=O)(=O)O [Compound 792, (2S,5R)-7-oxo-2-(5-(3-(piperazin-1-yl)propyl)-1,3,4-oxadiazol-2-yl)-1,6-diazabicyclo[3.2.1]octan-6-yl hydrogen sulfate] | more active than Avibactam |
| NC1CCN(c2nnc([C@@H]3CC[C@@H]4CN3C(=O)N4OS(=O)(=O)O)o2)CC1 [Compound 773, (2S,5R)-2-(5-(4-aminopiperidin-1-yl)-1,3,4-oxadiazol-2-yl)-7-oxo-1,6-diazabicyclo[3.2.1]octan-6-yl hydrogen sulfate] | more active than Avibactam |
| O=C1N2C[C@@H](CC[C@H]2c2nnc(N3CCNCC3)o2)N1OS(=O)(=O)O [Compound 713, (2S,5R)-7-oxo-2-(5-(piperazin-1-yl)-1,3,4-oxadiazol-2-yl)-1,6-diazabicyclo[3.2.1]octan-6-yl hydrogen sulfate] | more active than Avibactam |
| NCCNCCc1nnc([C@@H]2CC[C@@H]3CN2C(=O)N3OS(=O)(=O)O)o1 [Compound 716, (2S,5R)-2-(5-(2-((2-aminoethyl)amino)ethyl)-1,3,4-oxadiazol-2-yl)-7-oxo-1,6-diazabicyclo[3.2.1]octan-6-yl hydrogen sulfate] | more active than Avibactam |
| N[C@H]1C[C@H](NCc2nnc([C@@H]3CC[C@@H]4CN3C(=O)N4OS(=O)(=O)O)o2)C1 [Compound 757, (2S,5R)-2-(5-((((1r,3S)-3-aminocyclobutyl)amino)methyl)-1,3,4-oxadiazol-2-yl)-7-oxo-1,6-diazabicyclo[3.2.1]octan-6-yl hydrogen sulfate] | more active than Avibactam |
| N[C@H]1CC[C@H](c2nnc([C@@H]3CC[C@@H]4CN3C(=O)N4OS(=O)(=O)O)o2)CC1 [Compound 781, (2S,5R)-2-(5-((1r,4S)-4-aminocyclohexyl)-1,3,4-oxadiazol-2-yl)-7-oxo-1,6-diazabicyclo[3.2.1]octan-6-yl hydrogen sulfate] | more active than Avibactam |
| N=C(N)N1CCC(c2nnc([C@@H]3CC[C@@H]4CN3C(=O)N4OS(=O)(=O)O)o2)CC1 [Compound 712, (2S,5R)-2-(5-(1-carbamimidoylpiperidin-4-yl)-1,3,4-oxadiazol-2-yl)-7-oxo-1,6-diazabicyclo[3.2.1]octan-6-yl hydrogen sulfate] | more active than Avibactam |
| O=C1N2C[C@@H](CC[C@H]2c2nnc(N3CCNCC3)s2)N1OS(=O)(=O)O [Compound 797, (2S,5R)-7-oxo-2-(5-(piperazin-1-yl)-1,3,4-thiadiazol-2-yl)-1,6-diazabicyclo[3.2.1]octan-6-yl hydrogen sulfate] | more active than Avibactam |
| O=C1N2C[C@@H](CC[C@H]2c2nnc([C@@H]3CNCCN3)o2)N1OS(=O)(=O)O [Compound 778, (2S,5R)-7-oxo-2-(5-((S)-piperazin-2-yl)-1,3,4-oxadiazol-2-yl)-1,6-diazabicyclo[3.2.1]octan-6-yl hydrogen sulfate] | more active than Avibactam |
| O=C1N2C[C@@H](CC[C@H]2c2nnc(CNC3CCNCC3)o2)N1OS(=O)(=O)O [Compound 769, (2S,5R)-7-oxo-2-(5-((piperidin-4-ylamino)methyl)-1,3,4-oxadiazol-2-yl)-1,6-diazabicyclo[3.2.1]octan-6-yl hydrogen sulfate] | more active than Avibactam |
| O=C1N2C[C@@H](CC[C@H]2c2nnc(C3CCNCC3)s2)N1OS(=O)(=O)O [Compound 719, (2S,5R)-7-oxo-2-(5-(piperidin-4-yl)-1,3,4-thiadiazol-2-yl)-1,6-diazabicyclo[3.2.1]octan-6-yl hydrogen sulfate] | more active than Avibactam |
| N[C@H]1CC[C@@H](c2nnc([C@@H]3CC[C@@H]4CN3C(=O)N4OS(=O)(=O)O)o2)CC1 [Compound 780, (2S,5R)-2-(5-((1s,4R)-4-aminocyclohexyl)-1,3,4-oxadiazol-2-yl)-7-oxo-1,6-diazabicyclo[3.2.1]octan-6-yl hydrogen sulfate] | more active than Avibactam |
